Data as given in patent publication US8163935B2, “Fused heterocyclic compounds” (Takeda Pharmaceutical Company Limited, priority 2005, dated 2012).
Structures can show the parent of a compound that is named as a salt.

Columns and labels:
[1] = target: T1, human CRF receptor (Homo sapiens, UniProt P34998); assay: Corticotropin-releasing factor (CRF) receptor binding experiment with 125I-CRF; settings: human CRF receptor expressing CHO cellular membrane fraction; for IC50: 125I-CRF, GraphPad Prism; for inhibition at 1 µM: 1000 nM test compound, 50 pM 125I-CRF, read-out: Binding inhibitory rate (%) 1000 nM
T1 construct: expressed in transfected cells; host or cells: CHO cells (membrane fraction)
T1 sequence (P34998 24-415): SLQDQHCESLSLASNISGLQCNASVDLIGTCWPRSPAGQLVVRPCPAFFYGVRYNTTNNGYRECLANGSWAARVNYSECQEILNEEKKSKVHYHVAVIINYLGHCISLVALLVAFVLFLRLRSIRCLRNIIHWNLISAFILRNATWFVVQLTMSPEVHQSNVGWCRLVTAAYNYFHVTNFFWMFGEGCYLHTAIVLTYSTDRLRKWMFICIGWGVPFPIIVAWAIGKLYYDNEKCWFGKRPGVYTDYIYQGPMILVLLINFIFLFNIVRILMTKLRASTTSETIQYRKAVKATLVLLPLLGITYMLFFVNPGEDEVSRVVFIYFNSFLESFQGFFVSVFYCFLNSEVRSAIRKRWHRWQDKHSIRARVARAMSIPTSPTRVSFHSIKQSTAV
Method: A receptor binding experiment was carried out using a human CRF receptor expressing CHO cellular membrane fraction and ovine CRF, [^125I]-tyr^0 (^125I-CRF). 1000 nM of a test compound was incubated with 1 μg of human CRF receptor expressing CHO cellular membrane fraction and 50 pM of ^125I-CRF in a binding assay buffer (50 mM Tris-HCl, 5 mM EDTA, 10 mM MgCl2, 0.05% CHAPS, 0.1% BSA, 0.5 mM PMSF, 0.1 μg/ml pepstatin, 20 μg/ml leupeptin, pH 7.5). In addition, for measuring nonspecific binding (NSB), 0.1 μM unlabelled human Urocortin was incubated with 1 μg of human CRF receptor expressing CHO cellular membrane fraction and 50 pM of ^125I-CRF in a binding assay buffer. After a binding reaction was carried out at room temperature for 1.5 hour, the membrane was entrapped on a glass filter (UniFilter plate GF-C/Perkin Elmer) by suction filtration using a cell harvester (Perkin Elmer), and washed with ice-cooled 50 mM Tris-HCl (pH 7.5). After drying the glass filter, a liquid scintillation cocktail (Microscinti 0, Perkin Elmer) was added, and the radioactivity of ^125I-CRF remaining on a glass filter was measured using Topcount (Perkin Elmer).
(TB−SB)/(TB−NSB)×100 (SB: radioactivity when a compound is added, TB: maximum binding radioactivity, NSB: nonspecific binding radioactivity) was calculated to obtain a binding inhibitory rate under the presence of 1,000 nM of each test substances. The IC50 values were calculated by using GraphPad Prism software.

## CCc1ccccc1-c1cccc2nc(Nc3c(C)cc(Cl)cc3OC)n(C)c12 [Example 15, N-(4-Chloro-2-methoxy-6-methylphenyl)-7-(2-ethylphenyl)-1-methyl-1H-benzimidazol-2-amine]
[1]
  IC50: 10 to 50 nM

## CCc1cc(CC)n(-c2cccc3nc(Nc4c(C)cc(Br)cc4OC)n(C)c23)n1 [Example 66, N-(4-Bromo-2-methoxy-6-methylphenyl)-7-(3,5-diethyl-1H-pyrazol-1-yl)-1-methyl-1H-benzimidazol-2-amine]
[1]
  IC50: 10 to 50 nM

## CCCC(CCC)c1cccc2nc(Nc3c(C)cc(Br)cc3OC)n(C)c12 [Example 1, N-(4-Bromo-2-methoxy-6-methylphenyl)-1-methyl-7-(1-propylbutyl)-1H-benzimidazol-2-amine Hydrochloride]
[1]
  inhibition at 1 µM: > 80%

## COc1cc(Br)cc(C)c1Nc1nc2cccc(-n3c(C)ccc3C)c2n1C [Example 69, N-(4-Bromo-2-methoxy-6-methylphenyl)-7-(2,5-dimethyl-1H-pyrrol-1-yl)-1-methyl-1H-benzimidazol-2-amine]
[1]
  inhibition at 1 µM: > 80%

## CCC(CC)c1ccc(Cl)c2nc(Nc3c(C)cc(Cl)cc3OC)n(CCO)c12 [Example 103, 2-[4-Chloro-2-[(4-chloro-2-methoxy-6-methylphenyl)amino]-7-(1-ethylpropyl)-1H-benzimidazol-1-yl]ethanol]
[1]
  inhibition at 1 µM: > 80%

## CNCc1ccccc1-c1cccc2nc(Nc3c(C)cc(Cl)cc3OC)n(C)c12 [Example 64, N-(4-Chloro-2-methoxy-6-methylphenyl)-1-methyl-7-{2-[(methylamino)methyl]phenyl}-1H-benzimidazol-2-amine]
[1]
  inhibition at 1 µM: > 80%

## CCCC(CC)c1nccc2nc(Nc3c(C)cc(Br)cc3OC)n(C)c12 (stereo not drawn) [Example 9, N-(4-Bromo-2-methoxy-6-methylphenyl)-4-(1-ethylbutyl)-3-methyl-3H-imidazo[4,5-c]pyridin-2-amine]
[1]
  inhibition at 1 µM: > 80%

## CCCC(CCC)c1ccc(Cl)c2nc(Nc3ccc(Cl)cc3Br)n(C)c12 [Example 92, N-(2-Bromo-4-chlorophenyl)-4-chloro-1-methyl-7-(1-propylbutyl)-1H-benzimidazol-2-amine]
other
  melting point: 145 to 147 °C

## CCC(CC)c1ccc(C(F)(F)F)c2nc(Nc3ccc(Cl)cc3Br)n(C)c12 [Example 159, N-(2-Bromo-4-chlorophenyl)-7-(1-ethylpropyl)-1-methyl-4-(trifluoromethyl)-1H-benzimidazol-2-amine]
other
  melting point: 151 to 152 °C

## COc1cc(Cl)cc(C)c1Nc1nc2cccc(-c3c(OC)cccc3OC)c2n1C (as salt: trifluoroacetic acid salt) [Example 71, N-(4-chloro-2-methoxy-6-methylphenyl)-7-(2,6-dimethoxyphenyl)-1-methyl-1H-benzimidazol-2-amine Trifluoroacetic acid salt]
other
  melting point: 288 to 289 °C

## CCC(CC)c1ccc(C)c2nc(Nc3c(C)cc(Cl)cc3OC)n(C)c12 [Example 101, N-(4-Chloro-2-methoxy-6-methylphenyl)-7-(1-ethylpropyl)-1,4-dimethyl-1H-benzimidazol-2-amine]
[1]
  inhibition at 1 µM: > 80%
  IC50: < 10 nM

## CCCC(CCC)c1ccc(Cl)c2nc(Nc3cc(C(F)(F)F)c(O)cc3Cl)n(C)c12 [Example 122, 5-Chloro-4-{[4-chloro-1-methyl-7-(1-propylbutyl)-1H-benzimidazol-2-yl]amino}-2-(trifluoromethyl)phenol]
other
  melting point: 197 to 199 °C

## CCC(CC)c1ccc(Cl)c2nc(Oc3c(C)cc(Cl)cc3OC)n(C)c12 [Example 144, 4-Chloro-2-(4-chloro-2-methoxy-6-methylphenoxy)-7-(1-ethyl-1-propyl)-1-methyl-1H-benzimidazole]
other
  melting point: 165 to 167 °C

## CCCC(CCC)c1ccc(Cl)c2nc(Nc3c(C)cc(Cl)cc3C)n(C)c12 [Example 114, 4-Chloro-N-(4-chloro-2,6-dimethylphenyl)-1-methyl-7-(1-propylbutyl)-1H-benzimidazol-2-amine]
other
  melting point: 230 to 232 °C
